Data taken from PubChem BioAssay AID1259407 (Chemical Carcinogenesis Research Information System (CCRIS), 2018).
Calls of active or inactive are those of the source. How the calls were made is not given here.

Test system: CCRIS mutagenicity, Ames/micronucleus/aberration tests
Assay: CCRIS mutagenicity studies

In the case of `OCCNc1ccc(N=Nc2ccc(NCCO)cc2)cc1`, the mutagenic call (Test System: AMES SALMONELLA TYPHIMURIUM, Strain/Indicator: TA98, Metabolic Activation: HAMSTER, LIVER, S-9, AROCLOR 1254, Method: STANDARD PLATE) is reported as “active; positive”, the mutagenic call (Test System: AMES SALMONELLA TYPHIMURIUM, Strain/Indicator: TA98, Metabolic Activation: NONE, Method: STANDARD PLATE) is reported as “inactive; negative” and the mutagenic call (Test System: AMES SALMONELLA TYPHIMURIUM, Strain/Indicator: TA98, Metabolic Activation: RAT, LIVER, S-9, AROCLOR 1254, Method: PREINCUBATION) is reported as “active; positive”. The mutagenic call (Test System: AMES SALMONELLA TYPHIMURIUM, Strain/Indicator: TA98, Metabolic Activation: RAT, LIVER, S-9, AROCLOR 1254, Method: STANDARD PLATE) was “active; positive”, the mutagenic call (Test System: AMES SALMONELLA TYPHIMURIUM, Strain/Indicator: TA100, Metabolic Activation: NONE, Method: STANDARD PLATE) was “inactive; negative” and the mutagenic call (Test System: AMES SALMONELLA TYPHIMURIUM, Strain/Indicator: TA100, Metabolic Activation: RAT, LIVER, S-9, AROCLOR 1254, Method: STANDARD PLATE) was “inactive; negative”. The mutagenic call (Test System: AMES SALMONELLA TYPHIMURIUM, Strain/Indicator: TA1535, Metabolic Activation: NONE, Method: STANDARD PLATE) was “inactive; negative”, the mutagenic call (Test System: AMES SALMONELLA TYPHIMURIUM, Strain/Indicator: TA1535, Metabolic Activation: RAT, LIVER, S-9, AROCLOR 1254, Method: STANDARD PLATE) was “inactive; negative” and the mutagenic call (Test System: AMES SALMONELLA TYPHIMURIUM, Strain/Indicator: TA1537, Metabolic Activation: NONE, Method: STANDARD PLATE) was “inactive; negative”. For the same compound, the mutagenic call (Test System: AMES SALMONELLA TYPHIMURIUM, Strain/Indicator: TA1537, Metabolic Activation: RAT, LIVER, S-9, AROCLOR 1254, Method: STANDARD PLATE) was “inactive; negative”, the mutagenic call (Test System: AMES SALMONELLA TYPHIMURIUM, Strain/Indicator: TA1538, Metabolic Activation: NONE, Method: STANDARD PLATE) was “inactive; negative” and the mutagenic call (Test System: AMES SALMONELLA TYPHIMURIUM, Strain/Indicator: TA1538, Metabolic Activation: RAT, LIVER, S-9, AROCLOR 1254, Method: STANDARD PLATE) was “active; positive”.
With `CCCCOC(=O)c1ccccc1C(=O)OCc1ccccc1` the mutagenic call (End Point: IN VITRO CHROMOSOMAL ABERRATIONS, Test System: CHINESE HAMSTER OVARY CELLS, Metabolic Activation: NONE) was “inactive; negative”, the mutagenic call (End Point: IN VITRO CHROMOSOMAL ABERRATIONS, Test System: CHINESE HAMSTER OVARY CELLS, Metabolic Activation: RAT, LIVER, S-9, AROCLOR 1254) was “inactive; negative” and the mutagenic call (Test System: AMES SALMONELLA TYPHIMURIUM, Strain/Indicator: TA98, Metabolic Activation: HAMSTER, LIVER, S-9, AROCLOR 1254 (10%), Method: PREINCUBATION) was “inactive; negative”. The mutagenic call (Test System: AMES SALMONELLA TYPHIMURIUM, Strain/Indicator: TA98, Metabolic Activation: NONE, Method: PREINCUBATION) was “inactive; negative”, the mutagenic call (Test System: AMES SALMONELLA TYPHIMURIUM, Strain/Indicator: TA98, Metabolic Activation: RAT, LIVER, S-9, AROCLOR 1254 (10%), Method: PREINCUBATION) was “inactive; negative” and the mutagenic call (Test System: AMES SALMONELLA TYPHIMURIUM, Strain/Indicator: TA100, Metabolic Activation: HAMSTER, LIVER, S-9, AROCLOR 1254 (10%), Method: PREINCUBATION) was “inactive; negative”. The mutagenic call (Test System: AMES SALMONELLA TYPHIMURIUM, Strain/Indicator: TA100, Metabolic Activation: NONE, Method: PREINCUBATION) was “inactive; negative”, the mutagenic call (Test System: AMES SALMONELLA TYPHIMURIUM, Strain/Indicator: TA100, Metabolic Activation: RAT, LIVER, S-9, AROCLOR 1254 (10%), Method: PREINCUBATION) was “inactive; negative” and the mutagenic call (Test System: AMES SALMONELLA TYPHIMURIUM, Strain/Indicator: TA1535, Metabolic Activation: HAMSTER, LIVER, S-9, AROCLOR 1254 (10%), Method: PREINCUBATION) was “inactive; negative”. The mutagenic call (Test System: AMES SALMONELLA TYPHIMURIUM, Strain/Indicator: TA1535, Metabolic Activation: NONE, Method: PREINCUBATION) was “inactive; negative”, the mutagenic call (Test System: AMES SALMONELLA TYPHIMURIUM, Strain/Indicator: TA1535, Metabolic Activation: RAT, LIVER, S-9, AROCLOR 1254 (10%), Method: PREINCUBATION) was “inactive; negative” and the mutagenic call (Test System: AMES SALMONELLA TYPHIMURIUM, Strain/Indicator: TA1537, Metabolic Activation: HAMSTER, LIVER, S-9, AROCLOR 1254 (10%), Method: PREINCUBATION) was “inactive; negative”. The mutagenic call (Test System: AMES SALMONELLA TYPHIMURIUM, Strain/Indicator: TA1537, Metabolic Activation: NONE, Method: PREINCUBATION) was “inactive; negative”, the mutagenic call (Test System: AMES SALMONELLA TYPHIMURIUM, Strain/Indicator: TA1537, Metabolic Activation: RAT, LIVER, S-9, AROCLOR 1254 (10%), Method: PREINCUBATION) was “inactive; negative” and the mutagenic call (Test System: MOUSE LYMPHOMA, Strain/Indicator: L5178Y (TK+/TK-), Metabolic Activation: NONE, Method: SUSPENSION/PLATE) was “inactive; negative”. For the same compound, the mutagenic call (Test System: MOUSE LYMPHOMA, Strain/Indicator: L5178Y (TK+/TK-), Metabolic Activation: RAT LIVER S-9, Method: SUSPENSION/PLATE) was “active; positive” and the mutagenic call (Test System: MOUSE LYMPHOMA, Strain/Indicator: L5178Y (TK+/TK-), Metabolic Activation: RAT, LIVER, S-9, AROCLOR 1254, Method: SUSPENSION/PLATE) was “inactive; negative”.
With `N#CCCC(Br)(C#N)CBr` (stereo not given) the mutagenic call (End Point: In vivo micronucleus, Test System: Peripheral blood normochromatic erythrocytes, Species: Mouse, Strain/Sex: B6C3F1/Female, Route: Dermal) was “inactive; negative”, the mutagenic call (End Point: In vivo micronucleus, Test System: Peripheral blood normochromatic erythrocytes, Species: Mouse, Strain/Sex: B6C3F1/Male, Route: Dermal) was “inactive; negative” and the mutagenic call (Test System: Ames Salmonella typhimurium, Strain/Indicator: TA97, Metabolic Activation: Hamster, Liver, S-9, Aroclor 1254 (10 and 30%), Method: Preincubation) was “inactive; negative”. The mutagenic call (Test System: Ames Salmonella typhimurium, Strain/Indicator: TA97, Metabolic Activation: None, Method: Preincubation) was “inactive; negative”, the mutagenic call (Test System: Ames Salmonella typhimurium, Strain/Indicator: TA97, Metabolic Activation: Rat, Liver, S-9, Aroclor 1254 (10 and 30%), Method: Preincubation) was “inactive; negative” and the mutagenic call (Test System: Ames Salmonella typhimurium, Strain/Indicator: TA98, Metabolic Activation: Hamster, Liver, S-9, Aroclor 1254 (10 and 30%), Method: Preincubation) was “inactive; negative”. The mutagenic call (Test System: Ames Salmonella typhimurium, Strain/Indicator: TA98, Metabolic Activation: None, Method: Preincubation) was “inactive; negative”, the mutagenic call (Test System: Ames Salmonella typhimurium, Strain/Indicator: TA98, Metabolic Activation: Rat, Liver, S-9, Aroclor 1254 (10 and 30%), Method: Preincubation) was “inactive; negative” and the mutagenic call (Test System: Ames Salmonella typhimurium, Strain/Indicator: TA100, Metabolic Activation: Hamster, Liver, S-9, Aroclor 1254 (10 and 30%), Method: Preincubation) was “inactive; negative”. For the same compound, the mutagenic call (Test System: Ames Salmonella typhimurium, Strain/Indicator: TA100, Metabolic Activation: None, Method: Preincubation) was “inactive; negative”, the mutagenic call (Test System: Ames Salmonella typhimurium, Strain/Indicator: TA100, Metabolic Activation: Rat, Liver, S-9, Aroclor 1254 (10 and 30%), Method: Preincubation) was “inactive; negative” and the mutagenic call (Test System: Ames Salmonella typhimurium, Strain/Indicator: TA1535, Metabolic Activation: Hamster, Liver, S-9, Aroclor 1254 (10 and 30%), Method: Preincubation) was “inactive; negative”. For the same compound, the mutagenic call (Test System: Ames Salmonella typhimurium, Strain/Indicator: TA1535, Metabolic Activation: None, Method: Preincubation) was “inactive; negative”, the mutagenic call (Test System: Ames Salmonella typhimurium, Strain/Indicator: TA1535, Metabolic Activation: Rat, Liver, S-9, Aroclor 1254 (10 and 30%), Method: Preincubation) was “inactive; negative” and the mutagenic call (Test System: E. coli, Strain/Indicator: WP2 uvrA/pKM101, Metabolic Activation: None, Method: Preincubation) was “inactive; negative”. For the same compound, the mutagenic call (Test System: E. coli, Strain/Indicator: WP2 uvrA/pKM101, Metabolic Activation: Rat, Liver, S-9, Aroclor 1254 (10%), Method: Preincubation) was “inactive; negative”.
